The source of these data is patent US12421206B2, “Aryl-n-aryl derivatives for treating a RNA virus infection” (ABIVAX, priority 2018, dated 2025).

One may read the EC50 as the concentration giving half of the maximal effect. As usually defined, the inhibition is the relative decrease from the control value, in per cent.

For one test, the system named is RSV A2. Description: RSV inhibition (cytopathic effect inhibition) using Viral ToxGlo assay in HEp-2 cells. The note with it: human respiratory syncytial virus, RSV A2, MOI 0.5, HEp-2 cells, 72 h p.i. Format: cell-based. How it is done:
Protocol for Screening Antiviral Compounds for RSV Inhibition and Cytotoxicity Using Viral ToxGlo Assay
HEp-2 cells were maintained in Eagle's minimum essential medium (EMEM) with Earle's BSS adjusted to contain 2 mM L-glutamine, 10% fetal bovine serum, 100 U/ml penicillin and 100 μg/ml streptomycin. For the purposes of the screening assay they were grown to 90% confluency, trypsinized and recovered. The trypsin was neutralised with cell culture media and cells were centrifuged at 150×g for 5 minutes before discarding the supernatant and resuspending cell pellet in assay media (EMEM with Earle's BSS adjusted to contain 2 mM L-glutamine, 2% fetal bovine serum and 100 U/ml penicillin and 100 μg/ml streptomycin). The cells were seeded into white clear-bottomed cell culture plates at a density of 1.5×10^4 cells/well in 50 μl and 4×10^3 cells/well in 25 μl for 96 well plates and 384 well plates respectively. For the media/background control column assay media only was added. Cell plates were placed in a humid chamber and incubated overnight at 37° C./5% CO2. After overnight incubation cells were checked for confluency and healthy appearance.
Test articles were made up at 10× test concentration in a maximum DMSO concentration of 10% (final assay concentration maximal 1% DMSO) and added to the cell plates in volumes of 10 μl for 96 well plates and 5 μl for 384 well plates. For cell control and virus control wells the test article solvent only was added. Virus or assay media for cytotoxicity test wells and media/cell control wells was added immediately after test articles at an MOI of 0.5, 40 or 20 μl for 96 and 384 well plates respectively. Virus suspension was prepared by thawing RSV A2 frozen stocks and diluting to the required concentration of plaque forming units in assay media on ice.
Cell plates were further incubated inside a humid chamber for 72 h p.i at 37° C./5% CO2. After the incubation period cells were observed under the microscope to check for characteristic cytopathic effect in virus control wells and healthy cells in the cell control wells. After plates were adjusted to room temperature 20/40 μl Viral ToxGlo (Promega) was added to each well of the 384/96 well cell plates. Plates were incubated at room temperature, protected from light on a plate rocker for 20 minutes before measuring the luminescence on a spectrophotometer (Biotek Synergy HTX).
RSV inhibition was calculated as percentage of cytopathic effect inhibition relative to the virus control and cytotoxicity as percentage of cell survival relative to cell control wells. This allowed EC50 values to be calculated for each test article where a virus inhibition or cytotoxic dose response was identified.
(In general: Damage to the host cells serves as the signal in cytopathic effect assays.)

The next test deals with DENV-2 strain 16681. Description: DENV-2 inhibition (cytopathic effect inhibition) using Viral ToxGlo assay in A549 cells. Particulars: Dengue virus, DENV2, 120 h, compounds at 10 μM, MOI 0.5, 5 days p.i., read-out: % DENV-2 Inhibition Mean (n = 3). In kind it is cell-based, Dengue 2 virus. As to the method: Protocol for Screening Antiviral Compounds for DENV-2 Inhibition and Cytotoxicity Using Viral ToxGlo Assay
A549 cells were maintained in Dulbecco's Modified Eagle Medium (DMEM) supplemented with 10% fetal bovine serum, 100 U/ml penicillin and 100 μg/ml streptomycin. For the purposes of the screening assay they were grown to 90% confluency, trypsinized and recovered. The trypsin was neutralised with cell culture media and cells were centrifuged at 150×g for 5 minutes before discarding the supernatant and resuspending cell pellet in assay media (DMEM supplemented with 2% fetal bovine serum and 100 U/ml penicillin and 100 μg/ml streptomycin). The cells were seeded into 96-well white clear-bottomed cell culture plates at a density of 1.0×10^4 cells/well in 50 μl. For the media/background control column assay media only was added. Cell plates were placed in a humid chamber and incubated overnight at 37° C./5% CO2. After overnight incubation cells were checked for confluency and healthy appearance.
Test compounds were prepared at a final concentration of 10 μM in a maximum DMSO concentration of 1% (final assay concentration maximal 0.1% DMSO) and added to the cell plates in volumes of 10 μl. For cell control and virus control wells the test article solvent only was added. As a positive inhibition control, 7-Deaza-2′-C-methyladenosine was added at 100 μM in 3 wells. Virus (DENV-2 strain 16681) or assay media for cytotoxicity test wells and media/cell control wells was added immediately after test articles at an MOI of 0.5, 40 for 96 well plates respectively. Virus suspension was prepared by thawing DENV-2 frozen stocks and diluting to the required concentration of plaque forming units in assay media.
Cell plates were further incubated inside a humid chamber for 5 days p.i at 37° C./5% CO2. After the incubation period cells were observed under the microscope to check for characteristic cytopathic effect in virus control wells and healthy cells in the cell control wells. After plates were adjusted to room temperature 20 μl Viral ToxGlo (Promega) was added to each well of the 96-well cell plates. Plates were incubated at room temperature for 5 minutes before measuring the luminescence on a spectrophotometer (Envision, PerkinElmer).
DENV-2 inhibition was calculated as percentage of cytopathic effect inhibition relative to the virus control and cytotoxicity as percentage of cell survival relative to cell control wells.

As for `CC(C)CCNC(=O)c1cccc(Nc2ccc(OCc3ccccn3)cc2C2CC2)c1` [Compound 61, 3-((2-cyclopropyl-4-(pyridin-2-ylmethoxy)phenyl)amino)-N-isopentylbenzamide], the EC50 with RSV A2 is 54 nM. Also, the inhibition at 10 µM in the test on DENV-2 strain 16681 was found to be 55%.

Regarding `O=C(NCC1CCCC1)c1cccc(Nc2ccc(OCc3ccccn3)cc2)c1` [Compound 62, N-(cyclopentylmethyl)-3-((4-(pyridin-2-ylmethoxy)phenyl)amino)benzamide], in the test with DENV-2 strain 16681, the inhibition at 10 µM was 55%.

As for `O=C(NCCC(F)(F)F)c1cccc(Nc2ccc(OCc3ccccn3)cc2)c1` [Compound 65, 3-((4-(pyridin-2-ylmethoxy)phenyl)amino)-N-(3,3,3-trifluoropropyl)benzamide], in the test with DENV-2 strain 16681, the inhibition at 10 µM is 77%.

For `O=C(NCCC1CCCC1)c1cccc(Nc2ccc(OCc3ccccc3)cc2C2CC2)c1` [Compound 82, N-(2-(cyclopentyl)ethyl)-3-((2-cyclopropyl-4-(phenylmethoxy)phenyl)amino)benzamide], in the test on RSV A2, the EC50 was determined as 4 nM. Also, the inhibition at 10 µM with DENV-2 strain 16681 is 64%.

In the case of `O=C(CCC1CCCCC1)Nc1cccc(Nc2ccc(OCc3ccccc3)cc2C(F)(F)F)c1` [Compound 98, N-(3-{[4-(benzyloxy)-2-(trifluoromethyl)phenyl]amino}phenyl)-3-cyclohexylpropanamide], the EC50 in the test with RSV A2 worked out at 12 nM. In addition, the inhibition at 10 µM in the test on DENV-2 strain 16681 was found to be 60%.

As to `CC(C)c1cc(OCc2ccccc2)ccc1Nc1cccc(OCCCC2CCCCC2)c1` [Compound 119, 4-(benzyloxy)-N-[3-(3-cyclohexylpropoxy)phenyl]-2-(propan-2-yl)aniline], the EC50 with RSV A2 was determined as 107 nM. Besides, the inhibition at 10 µM with DENV-2 strain 16681 was determined as 104%.

Take `Cc1cc(OCc2ccc(F)cc2)ccc1Nc1ccc(F)c(NC(=O)CCC2CCCCC2)c1` [Compound 121, 3-cyclohexyl-N-[2-fluoro-5-({4-[(4-fluorophenyl)methoxy]-2-methylphenyl}amino)phenyl]propanamide]: in the test on RSV A2, the EC50 came out at 116 nM. Also, the inhibition at 10 µM in the test on DENV-2 strain 16681 stood at 59%.

As to `Cc1cc(OCc2ccccc2)ccc1Nc1cccc(NC(=O)CCC2CCCCC2)c1` [Compound 132, N-(3-{[4-(benzyloxy)-2-methylphenyl]amino}phenyl)-3-cyclohexylpropanamide], the EC50 in the test with RSV A2 was 228 nM. In addition, the inhibition at 10 µM in the test on DENV-2 strain 16681 worked out at 71%.

For the compound `Cc1cc(OCc2ccc(F)cc2)ccc1Nc1cccc(NC(=O)CCC2CCCCC2)c1` [Compound 140, 3-cyclohexyl-N-[3-({4-[(4-fluorophenyl)methoxy]-2-methylphenyl}amino)phenyl]propanamide], in the test on RSV A2, the EC50 came to 349 nM. Further, the inhibition at 10 µM in the test on DENV-2 strain 16681 stood at 74%.

As for `O=C(CCC1CCCCC1)Nc1cccc(Nc2ccc(OCc3ccccc3)cc2F)c1` [Compound 150, N-(3-{[4-(benzyloxy)-2-fluorophenyl]amino}phenyl)-3-cyclohexylpropanamide], the EC50 with RSV A2 is 597 nM. The inhibition at 10 µM in the test with DENV-2 strain 16681 stood at 78%.

With `c1ccc(COc2ccc(Nc3cccc(OC4COC4)c3)c(C3CC3)c2)nc1` [Compound 151, 2-cyclopropyl-N-[3-(oxetan-3-yloxy)phenyl]-4-[(pyridin-2-yl)methoxy]aniline], in the test with RSV A2, the EC50 worked out at 671 nM. Besides, the inhibition at 10 µM in the test with DENV-2 strain 16681 is 63%.

With `Cc1cc(OCc2ncccn2)ccc1Nc1cccc(OCCCC2CCCCC2)c1` [Compound 152, N-[3-(3-cyclohexylpropoxy)phenyl]-2-methyl-4-[(pyrimidin-2-yl)methoxy]aniline], the EC50 in the test on RSV A2 came out at 802 nM.

As for `Cc1cc(OCc2ccc(OC(F)(F)F)cc2)ccc1Nc1cccc(NC(=O)CCC2CCCCC2)c1` [Compound 153, 3-cyclohexyl-N-{3-[(2-methyl-4-{[4-(trifluoromethoxy)phenyl]methoxy}phenyl)amino]phenyl}propanamide], the EC50 with RSV A2 was 809 nM.

As to `c1ccc(COc2ccc(Nc3ccccc3OCCCC3CCCCC3)c(C3CC3)c2)cc1` [Compound 154, 4-(benzyloxy)-N-[2-(3-cyclohexylpropoxy)phenyl]-2-cyclopropylaniline], the EC50 in the test with RSV A2 was found to be 810 nM.

`OCC(O)(CCC1CCCCC1)c1cccc(Nc2ccc(OCc3ccccc3)cc2C2CC2)c1` (stereo not shown) [Compound 155, 2-(3-{[4-(benzyloxy)-2-cyclopropylphenyl]amino}phenyl)-4-cyclohexylbutane-1,2-diol]: the EC50 in the test with RSV A2 turned out to be 1030 nM.

Consider `CN(c1cccc(OCCCC2CCCCC2)c1)c1ccc(OCc2ccccn2)cc1C1CC1` [Compound 156, N-[3-(3-cyclohexylpropoxy)phenyl]-2-cyclopropyl-N-methyl-4-[(pyridin-2-yl)methoxy]aniline], for which, in the test with RSV A2, the EC50 amounted to 1060 nM. In the test with DENV-2 strain 16681, the inhibition at 10 µM turned out to be 82%.

As to `c1ccc(COc2ccc(Nc3cccc(OCCCC4CCCCC4)c3)c(C3CCOCC3)c2)cc1` [Compound 164, 4-(benzyloxy)-N-[3-(3-cyclohexylpropoxy)phenyl]-2-(oxan-4-yl)aniline], in the test with RSV A2, the EC50 was 1320 nM.

As for `C1=C(c2cc(OCc3ccccc3)ccc2Nc2cccc(OCCCC3CCCCC3)c2)CCOC1` [Compound 165, 4-(benzyloxy)-N-[3-(3-cyclohexylpropoxy)phenyl]-2-(3,6-dihydro-2H-pyran-4-yl)aniline], the EC50 in the test with RSV A2 was found to be 2360 nM.

Turning to `c1ccc(COc2ccc(Nc3cncc(OCCCC4CCCCC4)c3)c(C3CC3)c2)nc1` [Compound 166, 5-(3-cyclohexylpropoxy)-N-{2-cyclopropyl-4-[(pyridin-2-yl)methoxy]phenyl}pyridin-3-amine], the EC50 in the test with RSV A2 came out at 2490 nM.

Take `O=C(CCC1CCCCC1)Nc1cccc(Nc2ccc(OCc3ccc(C(F)(F)F)cc3)cc2C2CC2)c1` [Compound 169, 3-cyclohexyl-N-{3-[(2-cyclopropyl-4-{[4-(trifluoromethyl)phenyl]methoxy}phenyl)amino]phenyl}propanamide]: the inhibition at 10 µM in the test on DENV-2 strain 16681 turned out to be 59%.

For `Cc1cc(OCc2ccccc2)ccc1Nc1cccc(OCC2CCCC2)c1` [Compound 175, 4-(benzyloxy)-N-[3-(cyclopentylmethoxy)phenyl]-2-methylaniline], the inhibition at 10 µM in the test with DENV-2 strain 16681 stood at 60%.

For `Cc1cc(OCc2cncnc2)ccc1Nc1cccc(OCCCC2CCCCC2)c1` [Compound 176, N-[3-(3-cyclohexylpropoxy)phenyl]-2-methyl-4-[(pyrimidin-5-yl)methoxy]aniline], the inhibition at 10 µM in the test on DENV-2 strain 16681 turned out to be 85%.

`c1ccc(COc2ccc(Nc3cccc(-c4cnco4)c3)c(C3CC3)c2)nc1` [Compound 179, 2-cyclopropyl-N-[3-(1,3-oxazol-5-yl)phenyl]-4-[(pyridin-2-yl)methoxy]aniline]: the EC50 in the test with RSV A2 amounted to 721 nM.

As to `Cc1cc(OCc2ccccc2)ccc1Nc1cccc(OCC(=O)O)c1` [Compound 192, 2-(3-{[4-(benzyloxy)-2-methylphenyl]amino}phenoxy)acetic acid], the inhibition at 10 µM in the test with DENV-2 strain 16681 was 66%.
